Laboratory results taken from patent US20220132847A1, “CINNOLINIUM COMPOUNDS FOR USE IN A METHOD OF CONTROLLING UNWANTED PLANT GROWTH” (SYNGENTA CROP PROTECTION AG, priority 2019, published 2022).
Counter-ions that a name gives are not always drawn.

How the values were obtained:
Experiment in all cases: Post-emergence efficacy, glasshouse
Type in all cases: in vivo
[1] = system: Ipomoea hederacea (IPOHE); settings: Ipomoea hederacea, post-emergence, 312 h, evaluated after 13 days, 100=total damage to plant, 0=no damage to plant, read-out: Control of weed species after post-emergence application, IPOHE; for pest or weed control at 1000 g/ha: Application Rate 1000 g/Ha
Experimental: (§1) Seeds of a variety of test species were sown in standard soil in pots. After cultivation for 14 days (post-emergence) under controlled conditions in a glasshouse (at 24/16° C., day/night; 14 hours light; 65% humidity), the plants were sprayed with an aqueous spray solution derived from the dissolution of the technical active ingredient formula (I) in a small amount of acetone and a special solvent and emulsifier mixture referred to as IF50 (11.12% Emulsogen EL360™+44.44% N-methylpyrrolidone+44.44% Dowanol DPM glycol ether), to create a 50 g/l solution which was then diluted to required concentration using 0.25% or 1% Empicol ESC70 (Sodium lauryl ether sulphate)+1% ammonium sulphate in water as diluent.
(§2) The test plants were then grown in a glasshouse under controlled conditions (at 24/16° C., day/night; 14 hours light; 65% humidity) and watered twice daily. After 13 days the test was evaluated (100=total damage to plant; 0=no damage to plant).
(§3) Ipomoea hederacea (IPOHE), Euphorbia heterophylla (EPHHL), Chenopodium album (CHEAL), Amaranthus palmeri (AMAPA), Lolium perenne (LOLPE), Digitaria sanguinalis (DIGSA), Eleusine indica (ELEIN), Echinochloa crus-galli (ECHCG), Setaria faberi (SETFA)

Eleusine indica (ELEIN) = settings: Eleusine indica, post-emergence, 312 h, evaluated after 13 days, 100=total damage to plant, 0=no damage to plant, read-out: Control of weed species after post-emergence application, ELEIN; for pest or weed control at 1000 g/ha: Application Rate 1000 g/Ha
Experimental: as §1, §2, §3

[2] = system: Euphorbia heterophylla (EPHHL); settings: Euphorbia heterophylla, post-emergence, 312 h, evaluated after 13 days, 100=total damage to plant, 0=no damage to plant, read-out: Control of weed species after post-emergence application, EPHHL; for pest or weed control at 1000 g/ha: Application Rate 1000 g/Ha
Experimental: as §1, §2, §3

[3] = system: Chenopodium album (CHEAL); settings: Chenopodium album, post-emergence, 312 h, evaluated after 13 days, 100=total damage to plant, 0=no damage to plant, read-out: Control of weed species after post-emergence application, CHEAL; for pest or weed control at 1000 g/ha: Application Rate 1000 g/Ha
Experimental: as §1, §2, §3

Lolium perenne (LOLPE) = settings: Lolium perenne, post-emergence, 312 h, evaluated after 13 days, 100=total damage to plant, 0=no damage to plant, read-out: Control of weed species after post-emergence application, LOLPE; for pest or weed control at 1000 g/ha: Application Rate 1000 g/Ha
Experimental: as §1, §2, §3

[4] = system: Amaranthus palmeri (AMAPA); settings: Amaranthus palmeri, post-emergence, 312 h, evaluated after 13 days, 100=total damage to plant, 0=no damage to plant, read-out: Control of weed species after post-emergence application, AMAPA; for pest or weed control at 1000 g/ha: Application Rate 1000 g/Ha
Experimental: as §1, §2, §3

Setaria faberi (SETFA) = settings: Setaria faberi, post-emergence, 312 h, evaluated after 13 days, 100=total damage to plant, 0=no damage to plant, read-out: Control of weed species after post-emergence application, SETFA; for pest or weed control at 1000 g/ha: Application Rate 1000 g/Ha
Experimental: as §1, §2, §3

[5] = system: Digitaria sanguinalis (DIGSA); settings: Digitaria sanguinalis, post-emergence, 312 h, evaluated after 13 days, 100=total damage to plant, 0=no damage to plant, read-out: Control of weed species after post-emergence application, DIGSA; for pest or weed control at 1000 g/ha: Application Rate 1000 g/Ha
Experimental: as §1, §2, §3

[6] = system: Echinochloa crus-galli (ECHCG); settings: Echinochloa crus-galli, post-emergence, 312 h, evaluated after 13 days, 100=total damage to plant, 0=no damage to plant, read-out: Control of weed species after post-emergence application, ECHCG; for pest or weed control at 1000 g/ha: Application Rate 1000 g/Ha
Experimental: as §1, §2, §3

Row | Structure (SMILES) | pest or weed control at 1000 g/ha [1] [%] | pest or weed control at 1000 g/ha (Eleusine indica (ELEIN)) [%] | pest or weed control at 1000 g/ha [2] [%] | pest or weed control at 1000 g/ha [3] [%] | pest or weed control at 1000 g/ha (Lolium perenne (LOLPE)) [%] | pest or weed control at 1000 g/ha [4] [%] | pest or weed control at 1000 g/ha (Setaria faberi (SETFA)) [%] | pest or weed control at 1000 g/ha [5] [%] | pest or weed control at 1000 g/ha [6] [%] | pest or weed control at 500 g/ha ([1]; Application Rate 500 g/Ha) [%] | pest or weed control at 500 g/ha (Eleusine indica (ELEIN); Application Rate 500 g/Ha) [%] | pest or weed control at 500 g/ha ([2]; Application Rate 500 g/Ha) [%] | pest or weed control at 500 g/ha ([3]; Application Rate 500 g/Ha) [%] | pest or weed control at 500 g/ha (Lolium perenne (LOLPE); Application Rate 500 g/Ha) [%] | pest or weed control at 500 g/ha ([4]; Application Rate 500 g/Ha) [%] | pest or weed control at 500 g/ha (Setaria faberi (SETFA); Application Rate 500 g/Ha) [%] | pest or weed control at 500 g/ha ([5]; Application Rate 500 g/Ha) [%] | pest or weed control at 500 g/ha ([6]; Application Rate 500 g/Ha) [%]
1 | O=C(O)CC[n+]1cc(C(=O)[N-]S(=O)(=O)C2CC2)c2ccccc2n1 [Compound A20, [2-(2-carboxyethyl)cinnolin-2-ium-4-carbonyl]-cyclopropylsulfonyl-azanide] | 10 | 0 | 20 | 30 | 0 | 50 | 0 | 0 | 10 |  |  |  |  |  |  |  |  | 
2 | CNS(=O)(=O)[N-]C(=O)c1c[n+](C)nc2ccccc12 [Compound A10, 2-methyl-N-(methylsulfamoyl)cinnolin-2-ium-4-carboxamide] | 30 | 60 | 70 | 70 | 30 | 80 | 50 | 70 | 50 |  |  |  |  |  |  |  |  | 
3 | CC[n+]1cc(P(=O)([O-])OC)c2ccccc2n1 [Compound A65] | 70 | 80 | 100 | 90 | 40 | 90 | 80 | 90 | 50 |  |  |  |  |  |  |  |  | 
4 | C[C@@H](NC(=O)c1c[n+](C)nc2ccccc12)C(=O)OC(C)(C)C [Compound A8, tert-butyl (2R)-2-[(2-methylcinnolin-2-ium-4-carbonyl)amino]propanoate iodide] | 10 | 10 | 30 | 30 | 20 | 20 | 10 | 20 | 20 |  |  |  |  |  |  |  |  | 
5 | C[n+]1cc(CP(=O)([O-])O)c2ccccc2n1 [Compound A50, (2-methylcinnolin-2-ium-4-yl)methylphosphonic acid] | 20 | 30 | 20 | 30 | 0 | 60 | 10 | 20 | 20 |  |  |  |  |  |  |  |  | 
6 | C[n+]1cc(C(=O)[N-]S(=O)(=O)c2ccc(Cl)s2)c2ccccc2n1 [Compound A39] | 30 | 10 | 20 | 30 | 0 | 80 | 30 | 10 | 20 |  |  |  |  |  |  |  |  | 
7 | C[n+]1nc2ccccc2c(C(=O)[O-])c1-c1ccccc1 [Compound A60] | 100 | 100 | 100 | 100 | 40 | 100 | 70 | 90 | 50 |  |  |  |  |  |  |  |  | 
8 | C[n+]1cc(C(=O)[N-]S(C)(=O)=O)c2ccccc2n1 [Compound A5, (2-methylcinnolin-2-ium-4-carbonyl)-methylsulfonyl-azanide] | 90 | 90 | 90 | 90 | 50 | 100 | 70 | 90 | 50 |  |  |  |  |  |  |  |  | 
9 | Cc1c(C(=O)[O-])c2ccccc2n[n+]1C [Compound A61, 2,3-dimethylcinnolin-2-ium-4-carboxylate] | 100 | 90 | 70 | 100 | 10 | 100 | 40 | 70 | 50 |  |  |  |  |  |  |  |  | 
10 | CC(C)P(=O)([O-])c1c[n+](C)nc2ccccc12 [Compound A46] | 100 | 100 | 100 | 100 | 60 | 100 | 90 | 100 | 90 |  |  |  |  |  |  |  |  | 
11 | CCOP(=O)(O)c1c[n+](CCO)nc2ccccc12 [Compound A69] |  |  |  |  |  |  |  |  |  | 90 | 90 | 100 | 90 | 40 | 100 | 90 | 100 | 70
12 | C[n+]1cc(C(=O)O)c2ccccc2n1 [Compound A3, 2-methylcinnolin-2-ium-4-carboxylic acid methyl sulfate] | 20 | 60 | 30 | 20 | 20 | 20 | 10 | 50 | 30 |  |  |  |  |  |  |  |  | 
13 | CC(C)CP(=O)([O-])c1c[n+](C)nc2ccccc12 [Compound A45] | 90 | 100 | 100 | 90 | 50 | 100 | 90 | 90 | 70 |  |  |  |  |  |  |  |  | 
